Literature values, collected in patent US9173848B2, “Solid pharmaceutical fixed dose compositions comprising irbesartan and amlodipine, their preparation and their therapeutic application” (SANOFI, priority 2009, dated 2015).

How the values were obtained:
[1] = in vivo

| absolute bioavailability [1] | solubility in water | media of maximum solubility (parabolic pH solubility profile) | Structure (SMILES) |
| --- | --- | --- | --- |
| 64-90% | slightly soluble | – | CCOC(=O)C1=C(COCCN)NC(C)=C(C(=O)OC)C1c1ccccc1Cl (stereo not shown) [Amlodipine besylate] |
| – | insoluble | 0.1 N HCl and pH 7.5 phosphate buffer | CCCCC1=NC2(CCCC2)C(=O)N1Cc1ccc(-c2ccccc2-c2nnn[nH]2)cc1 [Irbesartan, 2-n-butyl-4-spirocyclopentane-1-[(2′-(tetrazol-5-yl)biphenyl-4-yl)methyl]-2-imidazolin-5-one] |
